# From patent US20150284375A1 (AJINOMOTO CO., INC., priority 2012, published 2015)
# Target: T1, human TRPA1 (Homo sapiens, UniProt O75762)
# T1 construct: expressed in transfected cells; host or cells: Human embryonic kidney-derived 293T cells, transiently transfected with the pcDNA3.1/zeo(+) human TRPA1 plasmid
# Test: Measurement of TRPA1 antagonist activity (intracellular calcium increase, FLIPR, allylisothiocyanate stimulation)
# Assay type: cell-based
# Conditions: 293T cells transfected with human TRPA1; allylisothiocyanate 20 μM; concentration for 50% inhibitory rate; read-out: antagonism hTRPA1
# Text: Measurement of TRPA1 Antagonist Activity
# Human TRPA1 Expression Plasmid
# As cDNA encoding human TRPA1 (GenBank accession No. […]), a commercially available product was purchased (manufactured by Kazusa DNA Research Institute, clone No.: pFN21AB7348, item No.: FHC07217). Using this as a template, full-length human TRPA1 gene was amplified using the primer sequences shown below, by reaction using DNA polymerase (manufactured by Stratagene, trade name: PfuUltra High-Fidelity DNA Polymerase).
# A recognition site (underlined) of restriction enzyme HindIII was added to the 5′ side, and XbaI site (underlined) was added to the 3′ side, and GTT of the template sequence was changed to termination codon TAG (bold). The obtained double stranded DNA was enzyme-digested with HindIII and XbaI, and introduced into a multicloning site of expression plasmid pcDNA3.1/zeo(+) (manufactured by Invitrogen) to give a human TRPA1 expression plasmid.
# Human embryonic kidney-derived 293T cells were cultured in Dulbecco's Modified Eagle Medium containing 10% fetal bovine serum, 10 unit penicillin, and 10 μg streptomycin, plated on a petri dish having a diameter of 10 cm at 3×10^6 cells, and cultured for 24 hr. A medium containing a reduced amount of serum (manufactured by Invitrogen, trade name: OPTI-MEM, 600 μL), a gene insertion reagent (manufactured by Mirus Bio, trade name: Mirus TransIT-293, 18 μL), and human TRPA1 expression plasmid (6 μg) were mixed, the total amount of the mixture was added to the cells on the petri dish to allow for gene transfer. The cells were recovered about 8 hr later, plated on a poly-D-lysine coated 384 well black/clear bottom plate at 7,500-12,000 cells/well, and cultured overnight.
# Measurement of Intracellular Calcium Increase
# The 384 well plate was recovered, and the medium was removed. A calcium-bonded fluorescent indicator (manufactured by Molecular Device, trade name: Calcium4 Assay Kit, 40 μL) dissolved in assay buffer (1×HBSS, 20 mM HEPES, pH 7.2) was added, and the cells were stained in a 37° C. incubator for 1 hr. The cells were taken out at room temperature and left standing for 15 min or more. A test substance (10 μL) was added by a 384 well type dispenser, and the mixture was incubated at room temperature for 10 min. Then, allylisothiocyanate (12.5 μL) at a final concentration of 20 μM was added by a fluorescence imaging plate reader (manufactured by Molecular Device, FLIPR), and changes in the relative fluorescence intensity were measured for 5 min.
# Test Substance Preparation
# The test substance was dissolved in dimethyl sulfoxide and serially diluted with an assay buffer containing 0.1% bovine serum albumin (1×HBSS, 20 mM HEPES, pH 7.2) to a 5-fold concentration of the evaluation concentration. Allylisothiocyanate, which is a known TRPA1 activator, was dissolved in dimethyl sulfoxide to 100 mM, and further diluted 5-fold (100 μM) of the final concentration, like the test substance.
# Calculation of Antagonist Activity
# Under the test substance-free conditions, the maximum variation range of the fluorescence intensity before and after allylisothiocyanate stimulation was defined to be 100% activity rate, and the variation range before and after buffer stimulation was defined as 0% activity rate. The activity rate on addition of the test substance was determined, and the numerical value obtained by subtracting the activity rate from 100 was defined to be an inhibitory rate. 1050, which is the concentration of the test substance necessary for reaching the 50% inhibitory rate, was calculated from the sigmoid approximate curve by a spreadsheet software Excel-Fit.
# T1 sequence (O75762 whole entry): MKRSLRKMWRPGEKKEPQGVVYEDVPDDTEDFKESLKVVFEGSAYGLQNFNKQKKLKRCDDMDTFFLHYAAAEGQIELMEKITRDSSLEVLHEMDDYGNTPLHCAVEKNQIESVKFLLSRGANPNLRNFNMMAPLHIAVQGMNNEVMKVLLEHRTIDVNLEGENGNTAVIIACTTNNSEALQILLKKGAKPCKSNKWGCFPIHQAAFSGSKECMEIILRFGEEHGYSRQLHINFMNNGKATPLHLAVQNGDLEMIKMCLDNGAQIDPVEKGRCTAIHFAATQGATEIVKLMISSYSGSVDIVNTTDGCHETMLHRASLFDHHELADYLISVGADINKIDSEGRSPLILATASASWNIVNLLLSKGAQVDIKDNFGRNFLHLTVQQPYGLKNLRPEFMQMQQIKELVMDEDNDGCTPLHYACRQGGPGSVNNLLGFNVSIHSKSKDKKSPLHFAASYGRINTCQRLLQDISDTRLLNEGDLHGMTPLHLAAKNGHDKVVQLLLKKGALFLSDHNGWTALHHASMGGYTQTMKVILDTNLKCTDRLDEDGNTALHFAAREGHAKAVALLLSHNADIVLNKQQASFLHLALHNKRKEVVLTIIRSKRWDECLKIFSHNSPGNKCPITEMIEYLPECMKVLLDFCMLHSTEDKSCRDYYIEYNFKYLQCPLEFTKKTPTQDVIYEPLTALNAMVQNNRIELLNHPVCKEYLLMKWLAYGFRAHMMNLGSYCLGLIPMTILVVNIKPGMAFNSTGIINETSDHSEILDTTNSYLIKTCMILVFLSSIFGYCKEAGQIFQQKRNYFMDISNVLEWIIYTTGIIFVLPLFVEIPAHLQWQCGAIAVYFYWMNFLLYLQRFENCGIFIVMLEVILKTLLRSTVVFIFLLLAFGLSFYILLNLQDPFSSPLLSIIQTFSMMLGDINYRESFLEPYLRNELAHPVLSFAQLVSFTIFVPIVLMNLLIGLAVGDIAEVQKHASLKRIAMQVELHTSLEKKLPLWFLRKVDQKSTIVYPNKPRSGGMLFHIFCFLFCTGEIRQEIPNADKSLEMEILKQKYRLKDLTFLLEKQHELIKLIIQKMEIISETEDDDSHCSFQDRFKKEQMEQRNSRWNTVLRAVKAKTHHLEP
row,Structure (SMILES),IC50 [nM]
1,"O=C(NCc1ccc(Oc2cccc(C(F)(F)F)c2)c(Cl)c1)[C@@H]1CCCN1S(=O)(=O)c1ccc(Cl)s1 [Example 24, (2S)-1-(5-chlorothiophene-2-sulfonyl)-N-({3-chloro-4-[3-(trifluoro-methyl)phenoxy]phenyl}methyl)pyrrolidine-2-carboxamide]",140
2,"O=C(NCc1ccc(Oc2cccc(C(F)(F)F)c2)c(F)c1)[C@@H]1CCCN1S(=O)(=O)c1ccc(Cl)s1 [Example 25, (2S)-1-(5-chlorothiophene-2-sulfonyl)-N-({3-fluoro-4-[3-(trifluoro-methyl)phenoxy]phenyl}methyl)pyrrolidine-2-carboxamide]",130
3,"O=C(NCc1c(F)cc(Oc2cccc(C(F)(F)F)c2)cc1F)[C@@H]1CCCN1S(=O)(=O)c1ccc(Cl)s1 [Example 26, (2S)-1-(5-chlorothiophene-2-sulfonyl)-N-({2,6-difluoro-4-[3-(trifluoro-methyl)phenoxy]phenyl}methyl)pyrrolidine-2-carboximide]",930
4,"O=C(NCc1ccc(F)c(Oc2ccc(C(F)(F)F)cc2)c1F)[C@@H]1CCCN1S(=O)(=O)c1ccc(Cl)s1 [Example 27, (2S)-1-(5-chlorothiophene-2-sulfonyl)-N-({2,4-difluoro-3-[4-(trifluoro-methyl)phenoxy]phenyl}methyl)pyrrolidine-2-carboxamide]",220
5,"O=C(NCc1c(F)ccc(Oc2ccc(C(F)(F)F)cc2)c1Cl)[C@@H]1CCCN1S(=O)(=O)c1ccc(Cl)s1 [Example 28, (2S)-N-({2-chloro-6-fluoro-3-[4-(trifluoromethyl)phenoxy]phenyl}methyl)-1-(5-chlorothiophene-2-sulfonyl)pyrrolidine-2-carboxamide]",1900
6,"O=C(NCc1ccc(Oc2cccc(C(F)(F)F)c2)cc1)[C@@H]1C=CCN1S(=O)(=O)c1ccc(Cl)s1 [Example 29, (2S)-1-(5-chlorothiophene-2-sulfonyl)-N-({4-[3-(trifluoromethyl)phenoxy]phenyl}methyl)-2,5-dihydropyrrole-2-carboxamide]",140
7,"O=C(NCc1ccc(Oc2cccc(C(F)(F)F)c2)cc1)[C@@H]1CCCN1S(=O)(=O)c1ccc(F)cc1 [Example 30, (2S)-1-(4-fluorophenyl)sulfonyl-N-({4-[3-(trifluoro-methyl)phenoxy]phenyl}methyl)pyrrolidine-2-carboxamide]",230
8,"O=C(NCc1ccc(Oc2cccc(C(F)(F)F)c2)cc1)[C@@H]1CCN1S(=O)(=O)c1ccc(Cl)s1 [Example 31, (2S)-1-(5-chlorothiophene-2-sulfonyl)-N-({4-[3-(trifluoro-methyl)phenoxy]phenyl}methyl)azetidine-2-carboxamide]",900
9,"O=C(NCc1cccc(Oc2ccc(C(F)(F)F)cc2)c1)[C@@H]1C=CCN1S(=O)(=O)c1ccc(Cl)s1 [Example 32, (2S)-1-(5-chlorothiophene-2-sulfonyl)-N-({3-[4-(trifluoro-methyl)phenoxy]phenyl}methyl)-2,5-dihydropyrrole-2-carboxamide]",19
10,"O=C(NCc1cccc(Oc2ccc(C(F)(F)F)cc2)c1)[C@@H]1CCCN1S(=O)(=O)c1ccc(F)cc1 [Example 33, (2S)-1-(4-fluorophenyl)sulfonyl-N-({3-[4-(trifluoro-methyl)phenoxy]phenyl}methyl)pyrrolidine-2-carboxamide]",56
11,"O=C(NCc1cccc(Oc2ccc(C(F)(F)F)cc2)c1)[C@@H]1CCN1S(=O)(=O)c1ccc(Cl)s1 [Example 34, (2S)-1-(5-chlorothiophene-2-sulfonyl)-N-({3-[4-(trifluoro-methyl)phenoxy]phenyl}methyl)azetidine-2-carboxamide]",150
12,"O=C(NCc1cccc(Oc2ccc(C(F)(F)F)cc2)c1)C1COCCN1S(=O)(=O)c1ccc(Cl)s1 (stereo not drawn) [Example 35, 4-(5-chlorothiophene-2-sulfonyl)-N-({3-[4-(trifluoro-methyl)phenoxy]phenyl}methyl)morpholine-3-carboxamide]",810
13,"O=C(NCc1cccc(Oc2ccc(C(F)(F)F)cc2)c1)[C@@H]1C=CCN1S(=O)(=O)c1ccc(F)cc1 [Example 36, (2S)-1-(4-fluorophenyl)sulfonyl-N-({3-[4-(trifluoromethyl)phenoxy]phenyl}methyl)-2,5-dihydropyrrole-2-carboxamide]",28
14,"O=C(NCc1cccc(Oc2ccc(C(F)(F)F)cc2)c1)[C@@H]1CCN1S(=O)(=O)c1ccc(F)cc1 [Example 37, (2S)-1-(4-fluorophenyl)sulfonyl-N-({3-[4-(trifluoro-methyl)phenoxy]phenyl}methyl)azetidine-2-carboxamide]",160
15,"O=C(NCc1cccc(Oc2ccc(C(F)(F)F)cc2)c1)[C@@H]1CCCN1S(=O)(=O)c1ccc(Cl)cc1 [Example 38, (2S)-1-(4-chlorophenyl)sulfonyl-N-({3-[4-(trifluoro-methyl)phenoxy]phenyl}methyl)pyrrolidine-2-carboxamide]",76
16,"O=C(NCc1ccnc(Oc2ccc(C(F)(F)F)cc2)c1)[C@@H]1CCCN1S(=O)(=O)c1ccc(Cl)s1 [Example 39, (2S)-1-(5-chlorothiophene-2-sulfonyl)-N-({2-[4-(trifluoro-methyl)phenoxy]-4-pyridyl}methyl)pyrrolidine-2-carboxamide]",64
17,"O=C(NCc1cc(Oc2ccc(C(F)(F)F)cc2)ccn1)[C@@H]1CCCN1S(=O)(=O)c1ccc(Cl)s1 [Example 40, (2S)-1-(5-chlorothiophene-2-sulfonyl)-N-({4-[4-(trifluoro-methyl)phenoxy]-2-pyridyl}methyl)pyrrolidine-2-carboxamide]",66
18,"O=C(NCc1ccc(COc2ccccc2)cc1)[C@@H]1CCCN1S(=O)(=O)c1ccc(Cl)s1 [Example 41, (2S)-1-(5-chlorothiophene-2-sulfonyl)-N-{[4-(phenoxymethyl)phenyl]methyl}pyrrolidine-2-carboxamide]",310
19,"O=C(NCc1ccc(COc2ccc(C(F)(F)F)cc2)cc1)[C@@H]1CCCN1S(=O)(=O)c1ccc(Cl)s1 [Example 42, (2S)-1-(5-chlorothiophene-2-sulfonyl)-N-((4-{[4-(trifluoro-methyl)phenoxy]methyl}phenyl)methyl)pyrrolidine-2-carboxamide]",227
20,"O=C(NCc1ccc(COc2ccc(OC(F)(F)F)cc2)cc1)[C@@H]1CCCN1S(=O)(=O)c1ccc(Cl)s1 [Example 43, (2S)-1-(5-chlorothiophene-2-sulfonyl)-N-((4-{[4-(trifluoro-methoxy)phenoxy]methyl}phenyl)methyl)pyrrolidine-2-carboxamide]",380
21,"Cc1ccc(OCc2ccc(CNC(=O)[C@@H]3CCCN3S(=O)(=O)c3ccc(Cl)s3)cc2)cc1 [Example 44, (2S)-1-(5-chlorothiophene-2-sulfonyl)-N-({4-[(4-methyl-phenoxy)methyl]phenyl}methyl)pyrrolidine-2-carboxamide]",670
22,"COc1ccc(OCc2ccc(CNC(=O)[C@@H]3CCCN3S(=O)(=O)c3ccc(Cl)s3)cc2)cc1 [Example 45, (2S)-1-(5-chlorothiophene-2-sulfonyl)-N-({4-[(4-methoxy-phenoxy)methyl]phenyl}methyl)pyrrolidine-2-carboxamide]",670
23,"O=C(NCc1ccc(COc2ccc(F)cc2)cc1)[C@@H]1CCCN1S(=O)(=O)c1ccc(Cl)s1 [Example 46, (2S)-1-(5-chlorothiophene-2-sulfonyl)-N-({4-[(4-fluoro-phenoxy)methyl]phenyl}methyl)pyrrolidine-2-carboxamide]",390
24,"O=C(NCc1ccc(COc2ccc(Cl)cc2)cc1)[C@@H]1CCCN1S(=O)(=O)c1ccc(Cl)s1 [Example 47, (2S)-N-({4-[(4-chlorophenoxy)methyl]phenyl}methyl)-1-(5-chlorothiophene-2-sulfonyl)pyrrolidine-2-carboxamide]",620
